The source of these data is patent US9611457B2, “Triazine derivatives as differentiation catalysts” (TECHNISCHE UNIVERSITAET WIEN, priority 2011, dated 2017).

`COc1ccc(Oc2nc(Nc3cccc(C(=O)OC(C)(C)C)c3)nc(Oc3ccc(C=O)cc3OC)n2)cc1` [(27), 3-{[4-(4-formyl-2-methoxyphenoxy)-6-(4-methoxyphenoxy)-1,3,5-triazin-2-yl]amino}benzoic acid t-butyl ester] displayed a melting point of 88 to 106 °C.
For `COc1ccc(Oc2nc(Nc3cccc(C(=O)OC(C)(C)C)c3)nc(Oc3ccccc3)n2)cc1` [(23), 3-{[4-(4-methoxyphenoxy)-6-phenoxy-1,3,5-triazin-2-yl]amino}benzoic acid t-butyl ester], the melting point is 68 to 70 °C.
The figure for `COC(=O)c1cccc(Nc2nc(Oc3ccccc3)nc(Oc3ccccc3)n2)c1` [(6), 3-[(4.6-diphenoxy-1,3,5-triazin-2-yl)amino]benzoic acid methyl ester] is 198 to 199.5 °C; for `COc1ccc(Oc2nc(Nc3cccc(C(=O)OC(C)(C)C)c3)nc(Oc3ccc(C#N)cc3)n2)cc1` [(28), 3-{[4-(4-cyanophenoxy)-6-(4-methoxyphenoxy)-1,3,5-triazin-2-yl]-amino}benzoic acid t-butyl ester] it is 161 to 164 °C.
As to `COC(=O)c1cccc(Nc2nc(Oc3ccc(OC)cc3)nc(Oc3ccc(Br)cc3C=O)n2)c1` [(16), 3-{[4-(4-bromo-2-formylphenoxy)-6-(4-methoxyphenoxy)-1,3,5-triazin-2-yl]amino}benzoic acid methyl ester], the melting point amounted to 180 °C.
For `COc1ccc(Oc2nc(Nc3cccc(C(=O)O)c3)nc(Oc3ccc(C=O)cc3OC)n2)cc1` [(37), 3-{[4-(4-formyl-2-methoxyphenoxy)-6-(4-methoxyphenoxy)-1,3,5-triazin-2-yl]amino}benzoic acid], the melting point is 180 to 182 °C.
The figure for `CC(C)(C)OC(=O)c1cccc(Nc2nc(Oc3ccccc3)nc(Oc3ccc(C(C)(C)C)cc3)n2)c1` [(22), 3-{[4-(4-t-butylphenoxy)-6-phenoxy-1,3,5-triazin-2-yl]amino}benzoic acid t-butyl ester] is 139 to 141 °C.
`CC(C)(C)OC(=O)c1cccc(Nc2nc(Oc3ccccc3)nc(Oc3ccccc3)n2)c1` [(18), 3-[(4.6-diphenoxy-1,3,5-triazin-2-yl)amino]benzoic acid t-butyl ester]: the melting point lay within 208 to 209 °C.
For `CC(C)(C)OC(=O)c1cccc(Nc2nc(Oc3ccccc3)nc(Oc3ccc(Cl)cc3)n2)c1` [(19), 3-{[4-(4-chlorophenoxy)-6-phenoxy-1,3,5-triazin-2-yl]amino}benzoic acid t-butyl ester], the melting point fell in the range of 172.5 to 174 °C.
In the case of `COC(=O)c1cccc(Nc2nc(Oc3ccc(C#N)cc3)nc(Oc3ccc(OC)cc3)n2)c1` [(17), 3-{[4-(4-cyanophenoxy)-6-(4-methoxyphenoxy)-1,3,5-triazin-2-yl]-amino}benzoic acid methyl ester] it was 132 to 134.5 °C.
The compound `COc1cc(C=O)ccc1Oc1nc(Nc2cccc(C(=O)OC(C)(C)C)c2)nc(Oc2ccccc2)n1` [(26), 3-{[4-(4-formyl-2-methoxyphenoxy)-6-phenoxy-1,3,5-triazin-2-yl]-amino}benzoic acid t-butyl ester] registered a melting point of 76 to 79 °C.
In turn, `CC(C)(C)OC(=O)c1cccc(Nc2nc(Oc3ccccc3)nc(Oc3ccc(C#N)cc3)n2)c1` [(24), 3-{[4-(4-cyanophenoxy)-6-phenoxy-1,3,5-triazin-2-yl]amino}benzoic acid t-butyl ester] gave a melting point of 176.5 to 178.5 °C.
Compound `CC(C)(C)OC(=O)c1cccc(Nc2nc(Oc3ccccc3)nc(Oc3cccc([N+](=O)[O-])c3)n2)c1` [(25), 3-{[4-(3-nitrophenoxy)-6-phenoxy-1,3,5-triazin-2-yl]amino}benzoic acid t-butyl ester] came in with a melting point of 137 to 148 °C.
The figure for `CC(C)(C)OC(=O)c1cccc(Nc2nc(Oc3ccccc3)nc(Oc3ccccc3Cl)n2)c1` [(21), 3-{[4-(2-chlorophenoxy)-6-phenoxy-1,3,5-triazin-2-yl]amino}benzoic acid t-butyl ester] is 191 to 192 °C.

A word on the melting point: it is the temperature, or range, at which the solid turns liquid.
